Measured values as given in ChEMBL document CHEMBL4419178, “Yap1 inhibitors that target the interaction of yap1 with oct4” (2018).
Calls of active or inactive are those of the source. The rule behind the calls is not given here.

Columns and labels:
[1] = test system: NCI-H1703; assay: Effect on expression of Nanog mRNA expression in human NCI-H1703 cells at 5 to 10 uM incubated for 72 hrs by RT-PCR method; format: cell-based; settings: nci-h1703, 72 h
[2] = test system: A549; assay: Cytotoxicity in human A549 cells assessed as reduction in cell viability at 0.5 to 20 uM incubated for 72 hrs by MTT assay; format: functional, cell-based
[3] = target: Transcriptional coactivator YAP1 (Homo sapiens) (UniProt P46937); assay: Inhibition of YAP1 in human NCI-H1703 cells assessed as suppression of PD-L1 mRNA expression at 5 to 10 uM incubated for 72 hrs by RT-PCR method; format: cell-based
[4] = target: Transcriptional coactivator YAP1 (Homo sapiens) (UniProt P46937); assay: Inhibition of YAP1 (unknown origin) assessed as disruption in YAP1/OCT4 interaction at 50 uM by cell based assay
[5] = target: Transcriptional coactivator YAP1 (Homo sapiens) (UniProt P46937); assay: Inhibition of YAP1 in human NCI-H146 cells assessed as suppression of PDK2 mRNA expression at 5 to 10 uM incubated for 72 hrs by RT-PCR method; format: cell-based
[6] = test system: HCC827; assay: Cytotoxicity in erlotinib-resistant human HCC827 cells assessed as reduction in cell viability at 1 to 20 uM by MTT assay; format: functional, cell-based
[7] = test system: NCI-H1703; assay: Cytotoxicity in human NCI-H1703 cells assessed as reduction in cell viability at 0.5 to 20 uM incubated for 96 hrs by MTT assay; format: functional, cell-based
[8] = test system: NCI-H146; assay: Effect on expression of Nanog mRNA expression in human NCI-H146 cells at 5 to 10 uM incubated for 72 hrs by RT-PCR method; format: cell-based; settings: nci-h146, 72 h
[9] = test system: HUVEC; assay: Inhibition of angiogenic tubule formation in HUVEC at 1 to 5 uM incubated for 18 to 24 hrs; format: functional, cell-based; settings: Homo sapiens
[10] = test system: NCI-H1650; assay: Inhibition of YAP1/TEAD2 interaction in human NCI-H1650 cells assessed as suppression of CTGF mRNA expression at 5 to 10 uM incubated for 72 hrs by RT-PCR method; format: cell-based
[11] = test system: NCI-H1650; assay: Inhibition of self-renewal capacity in cisplatin insensitive stem-like side-population cells of human NCI-H1650 cells assessed as reduction in number of spheres at 2 uM incubated for 5 days after 7 days cisplatin exposure by sphere formation assay; format: functional, cell-based
[12] = species on record: Homo sapiens; assay: Cytotoxicity in human WM1366 cells assessed as reduction in cell viability at 0.5 to 20 uM incubated for 72 hrs by MTT assay; format: functional, cell-based
[13] = target: Transcriptional coactivator YAP1 (Homo sapiens) (UniProt P46937); assay: Inhibition of YAP1 in human NCI-H1703 cells assessed as suppression of Sox2 mRNA expression at 5 to 10 uM incubated for 72 hrs by RT-PCR method; format: cell-based
[14] = target: Transcriptional coactivator YAP1 (Homo sapiens) (UniProt P46937); assay: Inhibition of YAP1 in human NCI-H1703 cells assessed as suppression of vimentin mRNA expression at 5 to 10 uM incubated for 72 hrs by RT-PCR method; format: cell-based
[15] = target: Transcriptional coactivator YAP1 (Homo sapiens) (UniProt P46937); assay: Inhibition of YAP1 in human NCI-H1650 cells assessed as suppression of PDK2 mRNA expression at 5 to 10 uM incubated for 72 hrs by RT-PCR method; format: cell-based
[16] = test system: NCI-H146; assay: Inhibition of self-renewal capacity in methotrexate insensitive stem-like side-population cells of human NCI-H146 cells assessed as reduction in number of spheres at 2 uM incubated for 3 days after 7 days methotrexate exposure by sphere formation assay; format: functional
[17] = target: Transcriptional coactivator YAP1 (Homo sapiens) (UniProt P46937); assay: Inhibition of YAP1 in human NCI-H1650 cells assessed as disruption in YAP1/OCT4 interaction at 5 uM incubated for 72 hrs by immunoprecipitation-Westem blot assay; format: cell-based
[18] = target: Transcriptional coactivator YAP1 (Homo sapiens) (UniProt P46937); assay: Inhibition of YAP1 in human NCI-H1650 cells assessed as suppression of vimentin mRNA expression at 5 to 10 uM incubated for 72 hrs by RT-PCR method; format: cell-based
[19] = species on record: Homo sapiens; assay: Cytotoxicity in human 92-1 cells assessed as reduction in cell viability at 0.5 to 20 uM incubated for 72 hrs by MTT assay; format: functional, cell-based
[20] = test system: SK-MEL-5; assay: Cytotoxicity in human SK-MEL-5 cells assessed as reduction in cell viability at 0.5 to 20 uM incubated for 72 hrs by MTT assay; format: functional, cell-based
[21] = test system: NCI-H226; assay: Cytotoxicity in human NCI-H226 cells assessed as reduction in cell viability at 0.5 to 20 uM incubated for 96 hrs by MTT assay; format: functional, cell-based
[22] = target: Transcriptional coactivator YAP1 (Homo sapiens) (UniProt P46937); assay: Inhibition of YAP1 in human NCI-H146 cells assessed as suppression of HK2 mRNA expression at 5 to 10 uM incubated for 72 hrs by RT-PCR method; format: cell-based
[23] = target: Transcriptional coactivator YAP1 (Homo sapiens) (UniProt P46937); assay: Inhibition of YAP1 in human NCI-H1703 cells assessed as suppression of fibronectin mRNA expression at 5 to 10 uM incubated for 72 hrs by RT-PCR method; format: cell-based
[24] = target: Transcriptional coactivator YAP1 (Homo sapiens) (UniProt P46937); assay: Inhibition of YAP1 in human A549 cells assessed as disruption in YAP1/OCT4 interaction at 5 uM incubated for 72 hrs by immunoprecipitation-Westem blot assay; format: cell-based
[25] = target: Transcriptional coactivator YAP1 (Homo sapiens) (UniProt P46937); assay: Inhibition of YAP1 in human NCI-H1650 cells assessed as reduction in Sox2 protein expression at 50 uM by luciferase reporter gene assay; format: cell-based
[26] = test system: NCI-H1703; assay: Effect on expression of Oct4 mRNA expression in human NCI-H1703 cells at 5 to 10 uM incubated for 72 hrs by RT-PCR method; format: cell-based; settings: nci-h1703, 72 h
[27] = target: Transcriptional coactivator YAP1 (Homo sapiens) (UniProt P46937); assay: Inhibition of YAP1 in human NCI-H1650 cells assessed as suppression of Sox2 mRNA expression at 5 to 10 uM incubated for 72 hrs by RT-PCR method; format: cell-based
[28] = target: Transcriptional coactivator YAP1 (Homo sapiens) (UniProt P46937); assay: Inhibition of YAP1 in human NCI-H146 cells assessed as suppression of Sox2 mRNA expression at 5 to 10 uM incubated for 72 hrs by RT-PCR method; format: cell-based
[29] = test system: NCI-H1703; assay: Inhibition of YAP1/TEAD2 interaction in human NCI-H1703 cells assessed as suppression of CTGF mRNA expression at 5 to 10 uM incubated for 72 hrs by RT-PCR method; format: cell-based
[30] = target: Transcriptional coactivator YAP1 (Homo sapiens) (UniProt P46937); assay: Inhibition of YAP1 in human NCI-H1703 cells assessed as suppression of HK2 mRNA expression at 5 to 10 uM incubated for 72 hrs by RT-PCR method; format: cell-based
[31] = target: Transcriptional coactivator YAP1 (Homo sapiens) (UniProt P46937); assay: Inhibition of YAP1 in human NCI-H1650 cells assessed as suppression of fibronectin mRNA expression at 5 to 10 uM incubated for 72 hrs by RT-PCR method; format: cell-based
[32] = test system: NCI-H146; assay: Effect on expression of Oct4 mRNA expression in human NCI-H146 cells at 5 to 10 uM incubated for 72 hrs by RT-PCR method; format: cell-based; settings: nci-h146, 72 h
[33] = test system: NCI-H1650; assay: Cytotoxicity in human NCI-H1650 cells assessed as reduction in cell viability at 0.5 to 20 uM incubated for 72 hrs by MTT assay; format: functional, cell-based
[34] = target: Transcriptional coactivator YAP1 (Homo sapiens) (UniProt P46937); assay: Inhibition of YAP1 in human NCI-H1650 cells assessed as suppression of HK2 mRNA expression at 5 to 10 uM incubated for 72 hrs by RT-PCR method; format: cell-based
[35] = test system: NCI-H1650; assay: Effect on expression of Nanog mRNA expression in human NCI-H1650 cells at 5 to 10 uM incubated for 72 hrs by RT-PCR method; format: cell-based; settings: nci-h1650, 72 h
[36] = target: Transcriptional coactivator YAP1 (Homo sapiens) (UniProt P46937); assay: Inhibition of YAP1 (unknown origin) assessed as disruption in YAP1/OCT4 interaction at 5 uM by ELISA relative to control
[37] = target: Transcriptional coactivator YAP1 (Homo sapiens) (UniProt P46937); assay: Inhibition of YAP1 in human NCI-H1703 cells assessed as suppression of PDK2 mRNA expression at 5 to 10 uM incubated for 72 hrs by RT-PCR method; format: cell-based
[38] = test system: NCI-H1975; assay: Cytotoxicity in gefitinib and erlotinib resistant human NCI-H1975 cells assessed as reduction in cell viability at 1 to 10 uM incubated for 72 hrs by MTT assay; format: functional, cell-based
[39] = target: Transcriptional coactivator YAP1 (Homo sapiens) (UniProt P46937); assay: Inhibition of YAP1 in human NCI-H1650 cells assessed as suppression of PD-L1 mRNA expression at 5 to 10 uM incubated for 72 hrs by RT-PCR method; format: cell-based
[40] = test system: PC-9; assay: Cytotoxicity in gefitinib resistant human PC9 cells assessed as reduction in cell viability at 1 to 20 uM by MTT assay; format: functional, cell-based
[41] = test system: NCI-H1650; assay: Inhibition of self-renewal capacity in stem-like side-population cells of human NCI-H1650 cells assessed as reduction in number of spheres at 50 uM incubated for 10 days by sphere formation assay relative to control; format: functional; settings: NCI-H1650, 240 h
[42] = test system: NCI-H1650; assay: Effect on expression of Oct4 mRNA expression in human NCI-H1650 cells at 5 to 10 uM incubated for 72 hrs by RT-PCR method; format: cell-based; settings: nci-h1650, 72 h

Sequence of Transcriptional coactivator YAP1 (Homo sapiens) (P46937 whole entry): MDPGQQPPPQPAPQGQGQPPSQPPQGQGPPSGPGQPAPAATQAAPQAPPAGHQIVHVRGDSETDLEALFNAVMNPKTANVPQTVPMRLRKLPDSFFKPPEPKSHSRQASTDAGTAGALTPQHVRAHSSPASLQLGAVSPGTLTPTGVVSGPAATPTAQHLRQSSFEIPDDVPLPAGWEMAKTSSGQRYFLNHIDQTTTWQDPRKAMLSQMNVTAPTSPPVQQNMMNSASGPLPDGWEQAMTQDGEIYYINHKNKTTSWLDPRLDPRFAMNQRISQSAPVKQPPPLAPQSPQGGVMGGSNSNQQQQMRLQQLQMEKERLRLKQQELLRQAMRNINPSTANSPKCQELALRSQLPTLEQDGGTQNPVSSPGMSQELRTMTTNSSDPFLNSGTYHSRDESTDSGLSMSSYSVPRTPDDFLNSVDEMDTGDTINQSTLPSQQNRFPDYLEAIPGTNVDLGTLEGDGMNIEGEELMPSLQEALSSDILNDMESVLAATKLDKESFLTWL

O=C(CC1CCN(C(=O)CCc2ccccc2)CC1)N[C@@H](Cc1ccc(OCc2ccccc2)cc1)C(=O)O
Activity [1]: Non-Toxic
Activity [2]: Active
inhibition [3]: Active
inhibition [4]: > 85%
inhibition [5]: Active
Activity [6]: Active
Activity [7]: Active
Activity [8]: Non-Toxic
inhibition [9]: Active
inhibition [10]: inactive
inhibition [11]: Active
Activity [12]: Active
inhibition [13]: Active
inhibition [14]: Active
inhibition [15]: Active
inhibition [16]: Active
inhibition [17]: Active
inhibition [18]: Active
Activity [19]: Active
Activity [20]: Active
Activity [21]: Active
inhibition [22]: Active
inhibition [23]: Active
inhibition [24]: Active
inhibition [25]: 85.3%
Activity [26]: Non-Toxic
inhibition [27]: Active
inhibition [28]: Active
inhibition [29]: inactive
inhibition [30]: Active
inhibition [31]: Active
Activity [32]: Non-Toxic
Activity [33]: Active
inhibition [34]: Active
Activity [35]: Non-Toxic
inhibition [36]: 95%
inhibition [37]: Active
Activity [38]: Active
inhibition [39]: Active
Activity [40]: Active
inhibition at 50 µM [41]: 72.6%
Activity [42]: Non-Toxic
